Usually Papp stands for a coefficient for how fast a substance crosses the barrier. Lower therefore signals slow passage.

A value given as a limit tells only on which side of the number the result lay.

Here are results for three compounds from PubChem BioAssay AID1508612.

This series can be described thus: passive permeability, PAMPA, ADME assay (AID 1508612). Particulars: pH 7.4, 30.0 min, 50.0 µM. In general terms: PAMPA measures passive passage across an artificial lipid membrane.

In the case of `NC(=O)C1CCN(c2nccc(Cl)n2)CC1`, the Papp is 37.3 ×10⁻⁶ cm/s.
The value for `Fc1cnc(-c2ccccc2C(F)F)nc1NCc1ccc(-n2ccnn2)cc1` was greater than 1000 ×10⁻⁶ cm/s.
The same measure for `Cc1ccc(-c2cc(C(=O)Nc3ccc(S(=O)(=O)Nc4ccc(C#N)cc4)cc3)c3ccccc3n2)cc1C`: less than 1 ×10⁻⁶ cm/s.
